Experimental data reported in patent US11691898B2, “Water treatment” (ITALMATCH CHEMICALS GB LIMITED, priority 2016, dated 2023).

Assays:
[1] = system: Desulfovibrio vulgaris; assay: Log10 reduction in viable count of anaerobic bacteria in a high-TDS aqueous suspension; format: cell-based; details: for Log10 Reduction Anaerobes*: pH 8.0, TDS 30,000 mg l^-1, versus control, 5 = complete kill, ppm active as per example; for effectiveness against anaerobes (in words): alone
Description: (§1) Aqueous systems inoculated with anaerobe and facultative anaerobe culture and having a total dissolved solids (TDS) concentration of 30,000 mg l^−1 were prepared and treated with treatment agents comprising: (a) tri n-butyl n-tetradecyl phosphonium chloride (TTPC) and (b) NaClO2.
(§2) A suspension of Desulfovibrio vulgaris plus Enterobacter aerogenes bacteria containing from 1×10^5 to 1×10^6 cells/mL was prepared in sterile pH 8 phosphate buffer containing sodium chloride to give the desired total dissolved solids (TDS) concentration. Aliquots of this suspension were dosed with the indicated concentrations of the compounds (a) and (b) with the concentrations being measured as ppm active. The mixtures were allowed to stand at room temperature. At the designated contact times, each mixture was sampled to determine the total number of viable cells of both Desulfovibrio vulgaris and Enterobacter aerogenes by serial 10-fold dilution into API RP 38 media vials and anaerobic acid producing media vials, respectively. The vials were incubated at 37° C. for 72 hours. Results were recorded as log10 reduction in the viable count versus the control.
(§3) The efficacy of the treatment agents was evaluated by measuring the Log10 Reduction of the anaerobic bacterium Desulfovibrio vulgaris and the facultative anaerobic bacterium Enterobacter aerogenes after contact times of 1 hour, 4 hours and 24 hours as detailed in Table 1. For TTPC the stated ppm value relates to the amount of TTPC added (active). For NaClO2 the stated ppm relates to the amount of NaClO2 added (active).

[2] = system: Enterobacter aerogenes; assay: Log10 reduction in viable count of facultative anaerobic bacteria in a high-TDS aqueous suspension; format: cell-based; details: pH 8.0, TDS 30,000 mg l^-1, versus control, 6 = complete kill, ppm active as per example
Description: as §1, §2, §3

Structure (SMILES): CCCCCCCCCCCCCC[P+](CCCC)(CCCC)CCCC.[Cl-] [1(comparative), tri n-butyl n-tetradecyl phosphonium chloride]
- Log10 Reduction Anaerobes* ([1]; contact time 1 hour): 2
- Log10 Reduction Facultative Anaerobes** ([2]; contact time 1 hour): 0

Structure (SMILES): CCCCCCCCCCCCCC[P+](CCCC)(CCCC)CCCC.[Cl-] [2(comparative), tri n-butyl n-tetradecyl phosphonium chloride]
- Log10 Reduction Anaerobes* ([1]; contact time 1 hour): 5
- Log10 Reduction Facultative Anaerobes** ([2]; contact time 1 hour): 3

Structure (SMILES): [Na+].[O-][Cl+][O-] [4(comparative), NaClO2]
- Log10 Reduction Anaerobes* ([1]; contact time 1 hour): 0
- Log10 Reduction Facultative Anaerobes** ([2]; contact time 1 hour): 0

Structure (SMILES): CCCCCCCCCCCCCC[P+](CCCC)(CCCC)CCCC.[Cl-] [9(comparative), tri n-butyl n-tetradecyl phosphonium chloride]
- Log10 Reduction Anaerobes* ([1]; contact time 4 hours): 5
- Log10 Reduction Facultative Anaerobes** ([2]; contact time 4 hours): 3

Structure (SMILES): CCCCCCCCCCCCCC[P+](CCCC)(CCCC)CCCC.[Cl-] [10(comparative), tri n-butyl n-tetradecyl phosphonium chloride]
- Log10 Reduction Anaerobes* ([1]; contact time 4 hours): 5
- Log10 Reduction Facultative Anaerobes** ([2]; contact time 4 hours): 4

Structure (SMILES): [Na+].[O-][Cl+][O-] [11(comparative), NaClO2]
- Log10 Reduction Anaerobes* ([1]; contact time 4 hours): 0
- Log10 Reduction Facultative Anaerobes** ([2]; contact time 4 hours): 0

Structure (SMILES): [Na+].[O-][Cl+][O-] [12(comparative), NaClO2]
- Log10 Reduction Anaerobes* ([1]; contact time 4 hours): 1
- Log10 Reduction Facultative Anaerobes** ([2]; contact time 4 hours): 0

Structure (SMILES): CCCCCCCCCCCCCC[P+](CCCC)(CCCC)CCCC.[Cl-] [17(comparative), tri n-butyl n-tetradecyl phosphonium chloride]
- Log10 Reduction Anaerobes* ([1]; contact time 24 hours): 5
- Log10 Reduction Facultative Anaerobes** ([2]; contact time 24 hours): 5

Structure (SMILES): CCCCCCCCCCCCCC[P+](CCCC)(CCCC)CCCC.[Cl-] [18(comparative), tri n-butyl n-tetradecyl phosphonium chloride]
- Log10 Reduction Anaerobes* ([1]; contact time 24 hours): 5
- Log10 Reduction Facultative Anaerobes** ([2]; contact time 24 hours): 6

Structure (SMILES): [Na+].[O-][Cl+][O-] [19(comparative), NaClO2]
- Log10 Reduction Anaerobes* ([1]; contact time 24 hours): 4
- Log10 Reduction Facultative Anaerobes** ([2]; contact time 24 hours): 0

Structure (SMILES): [Na+].[O-][Cl+][O-] [NaClO2]
- effectiveness against anaerobes (in words) ([1]; longer contact times): limited effectiveness
- effectiveness against anaerobes (in words) ([1]; short contact times): ineffective
